Results taken from the supplement of paper PMC10307832.

How the values were obtained:
Assay in all cases: relative viability (nuclei count vs DMSO), 5 days (fraction); higher = more cells survive
HCC-827 = tested on: HCC-827
Outline: (§1)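 Values are medians from duplicate plates. Each reflects relative viability, defined as the nuclei count of treated wells over that of vehicle wells. Lung cancer cell lines in 1536-well plates were pin-tool dosed one day after seeding with one drug alone or with a fixed anchor-drug dose plus five library-drug doses (not always all listed) in √10 steps, then fixed, stained and imaged at 4× after 5 days.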

NCI-H1437 = tested on: NCI-H1437
Outline: as §1

SK-LU-1 = tested on: SK-LU-1
Outline: as §1

NCI-H1755 = tested on: NCI-H1755
Outline: as §1

NCI-H23 = tested on: NCI-H23
Outline: as §1

HARA = tested on: HARA
Outline: as §1

NCI-H1915 = tested on: NCI-H1915
Outline: as §1

NCI-H1792 = tested on: NCI-H1792
Outline: as §1

A-427 = tested on: A-427
Outline: as §1

HCC-366 = tested on: HCC-366
Outline: as §1

NCI-H460 = tested on: NCI-H460
Outline: as §1

NCI-H1395 = tested on: NCI-H1395
Outline: as §1

NCI-H2009 = tested on: NCI-H2009
Outline: as §1

COR-L 105 = tested on: COR-L 105
Outline: as §1

EMC-BAC-2 = tested on: EMC-BAC-2
Outline: as §1

NCI-H2228 = tested on: NCI-H2228
Outline: as §1

LCLC-103H = tested on: LCLC-103H
Outline: as §1

CAL-12T = tested on: CAL-12T
Outline: as §1

NCI-H522 = tested on: NCI-H522
Outline: as §1

SW 1573 = tested on: SW 1573
Outline: as §1

HOP-62 = tested on: HOP-62
Outline: as §1

CC(=O)O[C@@]12CO[C@@H]1C[C@H](O)[C@@]1(C)C(=O)[C@H](O)C3=C(C)[C@@H](OC(=O)[C@H](O)[C@@H](NC(=O)OC(C)(C)C)c4ccccc4)C[C@@](O)([C@@H](OC(=O)c4ccccc4)[C@H]21)C3(C)C [Docetaxel] + Nc1nc2[nH]cc(CCc3ccc(C(=O)N[C@@H](CCC(=O)O)C(=O)O)cc3)c2c(=O)[nH]1 [Pemetrexed] (partner 0.2 µM)
relative viability (HCC-827; first compound 0.0002 µM): 0.183 | relative viability (HCC-827; first compound 0.000632 µM): 0.282 | relative viability (HCC-827; first compound 0.006325 µM): 0.238 | relative viability (HCC-827; first compound 0.02 µM): 0.215 | relative viability (NCI-H1437; first compound 0.0002 µM): 0.3 | relative viability (NCI-H1437; first compound 0.000632 µM): 0.361 | relative viability (NCI-H1437; first compound 0.002 µM): 0.32 | relative viability (NCI-H1437; first compound 0.006325 µM): 0.288 | relative viability (NCI-H1437; first compound 0.02 µM): 0.213 | relative viability (SK-LU-1; first compound 0.0002 µM): 0.947 | relative viability (SK-LU-1; first compound 0.000632 µM): 0.725 | relative viability (SK-LU-1; first compound 0.002 µM): 0.535 | relative viability (SK-LU-1; first compound 0.006325 µM): 0.337 | relative viability (SK-LU-1; first compound 0.02 µM): 0.258 | relative viability (NCI-H1755; first compound 0.0002 µM): 0.545 | relative viability (NCI-H1755; first compound 0.000632 µM): 0.438 | relative viability (NCI-H1755; first compound 0.002 µM): 0.453 | relative viability (NCI-H1755; first compound 0.006325 µM): 0.367 | relative viability (NCI-H1755; first compound 0.02 µM): 0.332 | relative viability (NCI-H23; first compound 0.0002 µM): 0.712 | relative viability (NCI-H23; first compound 0.000632 µM): 0.557 | relative viability (NCI-H23; first compound 0.002 µM): 0.258 | relative viability (NCI-H23; first compound 0.006325 µM): 0.207 | relative viability (NCI-H23; first compound 0.02 µM): 0.14 | relative viability (HARA; first compound 0.0002 µM): 0.196 | relative viability (HARA; first compound 0.000632 µM): 0.247 | relative viability (HARA; first compound 0.002 µM): 0.247 | relative viability (HARA; first compound 0.006325 µM): 0.188 | relative viability (HARA; first compound 0.02 µM): 0.142 | relative viability (NCI-H1915; first compound 0.0002 µM): 0.562 | relative viability (NCI-H1915; first compound 0.000632 µM): 0.47 | relative viability (NCI-H1915; first compound 0.002 µM): 0.327 | relative viability (NCI-H1915; first compound 0.006325 µM): 0.152 | relative viability (NCI-H1915; first compound 0.02 µM): 0.108 | relative viability (NCI-H1792; first compound 0.0002 µM): 0.764 | relative viability (NCI-H1792; first compound 0.000632 µM): 0.533 | relative viability (NCI-H1792; first compound 0.002 µM): 0.223 | relative viability (NCI-H1792; first compound 0.006325 µM): 0.105 | relative viability (NCI-H1792; first compound 0.02 µM): 0.0705 | relative viability (A-427; first compound 0.0002 µM): 0.886 | relative viability (A-427; first compound 0.000632 µM): 0.946 | relative viability (A-427; first compound 0.002 µM): 0.822 | relative viability (A-427; first compound 0.006325 µM): 0.323 | relative viability (HCC-366; first compound 0.0002 µM): 0.162 | relative viability (HCC-366; first compound 0.000632 µM): 0.16 | relative viability (HCC-366; first compound 0.002 µM): 0.0677 | relative viability (HCC-366; first compound 0.006325 µM): 0.0361 | relative viability (HCC-366; first compound 0.02 µM): 0.0202 | relative viability (NCI-H460; first compound 0.0002 µM): 0.0551 | relative viability (NCI-H460; first compound 0.000632 µM): 0.0652 | relative viability (NCI-H460; first compound 0.002 µM): 0.0375 | relative viability (NCI-H460; first compound 0.006325 µM): 0.0299 | relative viability (NCI-H460; first compound 0.02 µM): 0.021 | relative viability (NCI-H1395; first compound 0.0002 µM): 0.814 | relative viability (NCI-H1395; first compound 0.000632 µM): 0.706 | relative viability (NCI-H1395; first compound 0.002 µM): 0.652 | relative viability (NCI-H1395; first compound 0.006325 µM): 0.342 | relative viability (NCI-H1395; first compound 0.02 µM): 0.246 | relative viability (NCI-H2009; first compound 0.0002 µM): 0.946 | relative viability (NCI-H2009; first compound 0.000632 µM): 1.03 | relative viability (NCI-H2009; first compound 0.002 µM): 0.956 | relative viability (NCI-H2009; first compound 0.006325 µM): 0.733 | relative viability (NCI-H2009; first compound 0.02 µM): 0.27 | relative viability (COR-L 105; first compound 0.0002 µM): 1.06 | relative viability (COR-L 105; first compound 0.000632 µM): 1.12 | relative viability (COR-L 105; first compound 0.002 µM): 0.656 | relative viability (COR-L 105; first compound 0.006325 µM): 0.492 | relative viability (COR-L 105; first compound 0.02 µM): 0.388 | relative viability (EMC-BAC-2; first compound 0.0002 µM): 0.461 | relative viability (EMC-BAC-2; first compound 0.000632 µM): 0.462 | relative viability (EMC-BAC-2; first compound 0.002 µM): 0.464 | relative viability (EMC-BAC-2; first compound 0.006325 µM): 0.361 | relative viability (EMC-BAC-2; first compound 0.02 µM): 0.358 | relative viability (NCI-H2228; first compound 0.0002 µM): 0.319 | relative viability (NCI-H2228; first compound 0.000632 µM): 0.228 | relative viability (NCI-H2228; first compound 0.002 µM): 0.154 | relative viability (NCI-H2228; first compound 0.006325 µM): 0.146 | relative viability (NCI-H2228; first compound 0.02 µM): 0.11 | relative viability (LCLC-103H; first compound 0.0002 µM): 0.495 | relative viability (LCLC-103H; first compound 0.000632 µM): 0.54 | relative viability (LCLC-103H; first compound 0.002 µM): 0.515 | relative viability (LCLC-103H; first compound 0.006325 µM): 0.6 | relative viability (LCLC-103H; first compound 0.02 µM): 0.492 | relative viability (CAL-12T; first compound 0.0002 µM): 1.08 | relative viability (CAL-12T; first compound 0.000632 µM): 0.83 | relative viability (CAL-12T; first compound 0.002 µM): 0.241 | relative viability (CAL-12T; first compound 0.006325 µM): 0.272 | relative viability (CAL-12T; first compound 0.02 µM): 0.19 | relative viability (NCI-H522; first compound 0.0002 µM): 1.06 | relative viability (NCI-H522; first compound 0.000632 µM): 0.814 | relative viability (NCI-H522; first compound 0.002 µM): 0.737 | relative viability (NCI-H522; first compound 0.006325 µM): 0.636 | relative viability (NCI-H522; first compound 0.02 µM): 0.355 | relative viability (SW 1573; first compound 0.0002 µM): 0.557 | relative viability (SW 1573; first compound 0.000632 µM): 0.478 | relative viability (SW 1573; first compound 0.002 µM): 0.236 | relative viability (SW 1573; first compound 0.006325 µM): 0.146 | relative viability (SW 1573; first compound 0.02 µM): 0.138 | relative viability (HOP-62; first compound 0.0002 µM): 0.324 | relative viability (HOP-62; first compound 0.000632 µM): 0.362 | relative viability (HOP-62; first compound 0.002 µM): 0.304
